# Experimental data reported in PMC10289903 (Investigational New Drugs, 2023).
# Read-outs that look alike come from different tables or passages of the source.
# System: patients with locally advanced or metastatic solid tumors
# From the text: This was a Phase Ib, multicenter, open-label, dose-finding clinical trial (NCT02610075). […] Three types of treatment schedules were investigated: cohorts bid 1, bid 2, qd 1.1, qd 2.1 and qd 3.1 received bid or qd treatment on a 5/9 schedule (5 days on treatment, followed by 9 days off) on a 14-day cycle. Cohorts qd 1.2, qd 2.2, and qd 3.2 received treatment on a 5/2 schedule (5 days on followed by 2 days off for 2 of 3 weeks) in a 21-day cycle. Cohorts qd 2.3 and qd 3.3 received treatment on a weekly 5/2 schedule in a 21-day cycle (Table 1). The highest dose level(s) at which less than one-third of evaluable patients (none of 3 patients or 1 of 6 patients) experienced a dose-limiting toxicity (DLT) was declared the MTD.
# The per protocol analysis set was defined as a subset of the full analysis set, excluding subjects having an important protocol deviation, to be used for analyses of efficacy endpoints if appropriate.
smiles,measurement,setting,value
"C=CCn1c(=O)c2cnc(Nc3ccc(N4CCN(C)CC4)cc3)nc2n1-c1cccc(C(C)(C)O)n1 [adavosertib, Adavosertib]",Treatment-related SAE: pneumonia,all cohorts (N=62),2 [3.2%] n [%]
same,Treatment-related SAE: thrombocytopenia,all cohorts (N=62),1 [1.6%] n [%]
same,Abdominal pain (treatment-emergent AE),bid 2: 150 mg bid 5/9 (n=6),1 (16.7) n (%)
same,Abdominal pain (treatment-related AE),bid 2: 150 mg bid 5/9 (n=6),0 n (%)
same,Alanine aminotransferase increased (treatment-emergent AE),bid 2: 150 mg bid 5/9 (n=6),0 n (%)
same,Anemia (treatment-emergent AE),bid 2: 150 mg bid 5/9 (n=6),1 (16.7) n (%)
same,Anemia (treatment-related AE),bid 2: 150 mg bid 5/9 (n=6),1 (16.7) n (%)
same,Any AE (treatment-emergent),bid 2: 150 mg bid 5/9 (n=6),6 (100) n (%)
same,Any grade ≥ 3 AE,bid 2: 150 mg bid 5/9 (n=6),5 (83.3) n (%)
same,Any treatment-related AE,bid 2: 150 mg bid 5/9 (n=6),6 (100) n (%)
same,Any treatment-related grade ≥ 3 AE,bid 2: 150 mg bid 5/9 (n=6),3 (50.0) n (%)
same,Asthenia (treatment-emergent AE),bid 2: 150 mg bid 5/9 (n=6),1 (16.7) n (%)
same,Asthenia (treatment-related AE),bid 2: 150 mg bid 5/9 (n=6),0 n (%)
same,Back pain (treatment-emergent AE),bid 2: 150 mg bid 5/9 (n=6),2 (33.3) n (%)
same,Constipation (treatment-emergent AE),bid 2: 150 mg bid 5/9 (n=6),2 (33.3) n (%)
same,Constipation (treatment-related AE),bid 2: 150 mg bid 5/9 (n=6),1 (16.7) n (%)
same,Cough (treatment-emergent AE),bid 2: 150 mg bid 5/9 (n=6),1 (16.7) n (%)
same,Decreased appetite (treatment-emergent AE),bid 2: 150 mg bid 5/9 (n=6),2 (33.3) n (%)
same,Decreased appetite (treatment-related AE),bid 2: 150 mg bid 5/9 (n=6),2 (33.3) n (%)
same,Dehydration (treatment-emergent AE),bid 2: 150 mg bid 5/9 (n=6),4 (66.7) n (%)
same,Dehydration (treatment-related AE),bid 2: 150 mg bid 5/9 (n=6),4 (66.7) n (%)
same,Diarrhea (treatment-emergent AE),bid 2: 150 mg bid 5/9 (n=6),5 (83.3) n (%)
same,Diarrhea (treatment-related AE),bid 2: 150 mg bid 5/9 (n=6),5 (83.3) n (%)
same,Dizziness (treatment-emergent AE),bid 2: 150 mg bid 5/9 (n=6),1 (16.7) n (%)
same,Dyspepsia (treatment-emergent AE),bid 2: 150 mg bid 5/9 (n=6),1 (16.7) n (%)
same,Dyspepsia (treatment-related AE),bid 2: 150 mg bid 5/9 (n=6),1 (16.7) n (%)
same,Dyspnea (treatment-emergent AE),bid 2: 150 mg bid 5/9 (n=6),2 (33.3) n (%)
same,Edema peripheral (treatment-emergent AE),bid 2: 150 mg bid 5/9 (n=6),1 (16.7) n (%)
same,Fall (treatment-emergent AE),bid 2: 150 mg bid 5/9 (n=6),1 (16.7) n (%)
same,Fatigue (treatment-emergent AE),bid 2: 150 mg bid 5/9 (n=6),5 (83.3) n (%)
same,Fatigue (treatment-related AE),bid 2: 150 mg bid 5/9 (n=6),4 (66.7) n (%)
same,Headache (treatment-emergent AE),bid 2: 150 mg bid 5/9 (n=6),1 (16.7) n (%)
same,Hypokalemia (treatment-emergent AE),bid 2: 150 mg bid 5/9 (n=6),1 (16.7) n (%)
same,Insomnia (treatment-emergent AE),bid 2: 150 mg bid 5/9 (n=6),1 (16.7) n (%)
same,Muscle spasms (treatment-emergent AE),bid 2: 150 mg bid 5/9 (n=6),0 n (%)
same,Myalgia (treatment-emergent AE),bid 2: 150 mg bid 5/9 (n=6),0 n (%)
same,Myalgia (treatment-related AE),bid 2: 150 mg bid 5/9 (n=6),0 n (%)
same,Nausea (treatment-emergent AE),bid 2: 150 mg bid 5/9 (n=6),3 (50.0) n (%)
same,Nausea (treatment-related AE),bid 2: 150 mg bid 5/9 (n=6),3 (50.0) n (%)
same,Neutropenia (treatment-emergent AE),bid 2: 150 mg bid 5/9 (n=6),2 (33.3) n (%)
same,Neutropenia (treatment-related AE),bid 2: 150 mg bid 5/9 (n=6),2 (33.3) n (%)
same,Pneumonia (treatment-emergent AE),bid 2: 150 mg bid 5/9 (n=6),0 n (%)
same,Pyrexia (treatment-emergent AE),bid 2: 150 mg bid 5/9 (n=6),2 (33.3) n (%)
same,Rash (treatment-emergent AE),bid 2: 150 mg bid 5/9 (n=6),0 n (%)
same,Thrombocytopenia (treatment-emergent AE),bid 2: 150 mg bid 5/9 (n=6),0 n (%)
same,Thrombocytopenia (treatment-related AE),bid 2: 150 mg bid 5/9 (n=6),0 n (%)
same,Urinary tract infection (treatment-emergent AE),bid 2: 150 mg bid 5/9 (n=6),1 (16.7) n (%)
same,Vomiting (treatment-emergent AE),bid 2: 150 mg bid 5/9 (n=6),2 (33.3) n (%)
same,Vomiting (treatment-related AE),bid 2: 150 mg bid 5/9 (n=6),2 (33.3) n (%)
same,"Deaths attributed to disease progression and an SAE of treatment-unrelated grade 5 sepsis, patients",cohort qd 3.3,one
same,"AEs leading to dose interruptions, patients","human, in vivo",25 (40.3%) n (%)
same,"AEs leading to dose reductions, patients","human, in vivo",17 (27.4%) n (%)
same,"AEs leading to treatment discontinuation, patients","human, in vivo",4 (6.5%) n (%)
same,Abdominal pain (treatment-emergent AE),"human, in vivo",15 (24.2) n (%)
same,Alanine aminotransferase increased (treatment-emergent AE),"human, in vivo",8 (12.9) n (%)
same,Anemia (treatment-emergent AE),"human, in vivo",16 (25.8) n (%)
same,Anemia (treatment-related AE),"human, in vivo",11 (17.7) n (%)
same,Asthenia (treatment-emergent AE),"human, in vivo",10 (16.1) n (%)
same,Back pain (treatment-emergent AE),"human, in vivo",13 (21.0) n (%)
same,Constipation (treatment-emergent AE),"human, in vivo",15 (24.2) n (%)
same,Cough (treatment-emergent AE),"human, in vivo",9 (14.5) n (%)
same,Decreased appetite (treatment-emergent AE),"human, in vivo",14 (22.6) n (%)
same,Decreased appetite (treatment-related AE),"human, in vivo",11 (17.7) n (%)
same,Dehydration (treatment-related AE),"human, in vivo",11 (17.7) n (%)
same,"Dehydration leading to dose interruption, patients","human, in vivo",4 (6.5%) n (%)
same,"Diarrhea leading to dose interruption, patients","human, in vivo",4 (6.5%) n (%)
same,Dizziness (treatment-emergent AE),"human, in vivo",14 (22.6) n (%)
same,Dyspepsia (treatment-emergent AE),"human, in vivo",8 (12.9) n (%)
same,Dyspnea (treatment-emergent AE),"human, in vivo",9 (14.5) n (%)
same,Edema peripheral (treatment-emergent AE),"human, in vivo",16 (25.8) n (%)
same,Fall (treatment-emergent AE),"human, in vivo",9 (14.5) n (%)
same,"Fatigue leading to dose interruption, patients","human, in vivo",4 (6.5%) n (%)
same,Headache (treatment-emergent AE),"human, in vivo",8 (12.9) n (%)
same,Hypokalemia (treatment-emergent AE),"human, in vivo",11 (17.7) n (%)
same,Muscle spasms (treatment-emergent AE),"human, in vivo",8 (12.9) n (%)
same,Myalgia (treatment-emergent AE),"human, in vivo",12 (19.4) n (%)
same,Myalgia (treatment-related AE),"human, in vivo",9 (14.5) n (%)
same,Neutropenia (treatment-emergent AE),"human, in vivo",10 (16.1) n (%)
same,Neutropenia (treatment-related AE),"human, in vivo",9 (14.5) n (%)
same,"Neutropenia leading to dose reduction, patients","human, in vivo",4 (6.5%) n (%)
same,Number of treatment-related serious AEs,"human, in vivo",10
same,Patients with serious AEs,"human, in vivo",25 (40.3%) n (%)
same,Pyrexia (treatment-emergent AE),"human, in vivo",10 (16.1) n (%)
same,Thrombocytopenia (treatment-emergent AE),"human, in vivo",10 (16.1) n (%)
same,Thrombocytopenia (treatment-related AE),"human, in vivo",10 (16.1) n (%)
same,"Thrombocytopenia leading to dose interruption, patients","human, in vivo",4 (6.5%) n (%)
same,"Thrombocytopenia leading to dose reduction, patients","human, in vivo",5 (8.1%) n (%)
same,Treatment-related SAE: anemia,"human, in vivo",1 [1.6%] n [%]
same,Treatment-related SAE: dehydration,"human, in vivo",2 [3.2%] n [%]
same,Treatment-related SAE: febrile neutropenia,"human, in vivo",1 [1.6%] n [%]
same,Urinary tract infection (treatment-emergent AE),"human, in vivo",9 (14.5) n (%)
same,Vomiting (treatment-emergent AE),"human, in vivo",16 (25.8) n (%)
same,Vomiting (treatment-related AE),"human, in vivo",14 (22.6) n (%)
same,Number of serious AEs (SAEs) reported,in vivo,Fifty
same,Abdominal pain (treatment-emergent AE),qd 1.1: 200 mg qd 5/9 (n=5),1 (20.0) n (%)
same,Abdominal pain (treatment-related AE),qd 1.1: 200 mg qd 5/9 (n=5),0 n (%)
same,Alanine aminotransferase increased (treatment-emergent AE),qd 1.1: 200 mg qd 5/9 (n=5),2 (40.0) n (%)
same,Anemia (treatment-emergent AE),qd 1.1: 200 mg qd 5/9 (n=5),0 n (%)
same,Anemia (treatment-related AE),qd 1.1: 200 mg qd 5/9 (n=5),0 n (%)
same,Any AE (treatment-emergent),qd 1.1: 200 mg qd 5/9 (n=5),5 (100) n (%)
same,Any grade ≥ 3 AE,qd 1.1: 200 mg qd 5/9 (n=5),1 (20.0) n (%)
same,Any treatment-related AE,qd 1.1: 200 mg qd 5/9 (n=5),5 (100) n (%)
same,Any treatment-related grade ≥ 3 AE,qd 1.1: 200 mg qd 5/9 (n=5),1 (20.0) n (%)
same,Asthenia (treatment-emergent AE),qd 1.1: 200 mg qd 5/9 (n=5),2 (40.0) n (%)
same,Asthenia (treatment-related AE),qd 1.1: 200 mg qd 5/9 (n=5),2 (40.0) n (%)
same,Back pain (treatment-emergent AE),qd 1.1: 200 mg qd 5/9 (n=5),0 n (%)
same,Constipation (treatment-emergent AE),qd 1.1: 200 mg qd 5/9 (n=5),1 (20.0) n (%)
same,Constipation (treatment-related AE),qd 1.1: 200 mg qd 5/9 (n=5),1 (20.0) n (%)
same,Cough (treatment-emergent AE),qd 1.1: 200 mg qd 5/9 (n=5),0 n (%)
same,Decreased appetite (treatment-emergent AE),qd 1.1: 200 mg qd 5/9 (n=5),0 n (%)
same,Decreased appetite (treatment-related AE),qd 1.1: 200 mg qd 5/9 (n=5),0 n (%)
same,Dehydration (treatment-emergent AE),qd 1.1: 200 mg qd 5/9 (n=5),0 n (%)
same,Dehydration (treatment-related AE),qd 1.1: 200 mg qd 5/9 (n=5),0 n (%)
same,Diarrhea (treatment-emergent AE),qd 1.1: 200 mg qd 5/9 (n=5),1 (20.0) n (%)
same,Diarrhea (treatment-related AE),qd 1.1: 200 mg qd 5/9 (n=5),1 (20.0) n (%)
